Laboratory results: PubChem BioAssay AID504479 (NMMLSC, 2011)
Active and inactive are the calls of the source.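 Rule for the calls: active = GFP ratio vs DMSO below 0.65 in a strain, using the primary screen cutoff set for that strain's protein target; inactive = the rest.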

What was measured:
Experiment in all cases: TORC1 pathway position of GFP reporter effects – S. cerevisiae, TORC1 bypass vs wild-type strains, mechanism study for yeast TOR pathway modulator project (AID 504479)
Conditions in all cases: fluorescence ratio vs DMSO, at 10 µM
BY4741 = test system: BY4741
YBR084C-A = test system: YBR084C-A
YCL025C = test system: YCL025C
YCR005C = test system: YCR005C
YKL103C = test system: YKL103C
YNL142W = test system: YNL142W
[1] = RPL19A-GFP in TORC1 bypass strain, stronger effect = lower value
[2] = AGP1-GFP in TORC1 bypass strain, stronger effect = higher value
[3] = CIT2-GFP in TORC1 bypass strain, stronger effect = higher value
[4] = LAP4-GFP in TORC1 bypass strain, stronger effect = higher value
[5] = MEP2-GFP in TORC1 bypass strain, stronger effect = higher value

| SMILES | GFP ratio vs DMSO (BY4741) | GFP ratio vs DMSO (YBR084C-A; [1]) | GFP ratio vs DMSO (YBR084C-A) | GFP ratio vs DMSO (YCL025C; [2]) | GFP ratio vs DMSO (YCL025C) | GFP ratio vs DMSO (YCR005C; [3]) | GFP ratio vs DMSO (YCR005C) | GFP ratio vs DMSO (YKL103C; [4]) | GFP ratio vs DMSO (YKL103C) | GFP ratio vs DMSO (YNL142W; [5]) | GFP ratio vs DMSO (YNL142W) |
| --- | --- | --- | --- | --- | --- | --- | --- | --- | --- | --- | --- |
| CSC1=NS(=O)(=O)c2c(C)nn(C)c2S1 | 0.833 (inactive) | 0.9 | 0.887 (inactive) | 0.961 | 1.01 (inactive) | 0.826 | 0.78 (inactive) | 1.06 | 1.36 (inactive) | 0.862 | 0.972 (inactive) |
| O=C(NC(=S)NNC(=O)c1cnccn1)c1ccc(F)cc1 | 0.925 (inactive) | 0.827 | 0.877 (inactive) | 0.606 | 0.808 (inactive) | 0.691 | 0.716 (inactive) | 1.35 | 1.64 | 0.971 | 1.07 (inactive) |
| CC(=O)c1ccc(N2CCN(C(=O)c3ccc(Br)cc3)CC2)c(F)c1 | 1.18 (inactive) | 1.33 | 1.28 (inactive) | 1.42 | 1.17 (inactive) | 1.12 | 1.85 | 1.27 | 1.94 | 1.25 | 1.3 (inactive) |
| CN1CCN(C(c2ccc(C(F)(F)F)cc2)c2ccc3cccnc3c2O)CC1 (stereo not given) | 0.792 (inactive) | 0.96 | 0.85 (inactive) | 0.842 | 0.994 (inactive) | 0.633 | 0.641 (inactive) | 1.29 | 1.58 | 0.978 | 0.993 (inactive) |
| COc1ccc(C(=O)NNC(=S)NC(=O)/C=C/c2cccs2)cc1 | 1.24 (inactive) | 1.04 | 1.27 (inactive) | 0.916 | 1.18 (inactive) | 0.971 | 1.2 (inactive) | 1.16 | 1.72 | 1 | 1.15 (inactive) |
| CC(=O)SC(C[N+](=O)[O-])c1cn(C(C)=O)c2ccccc12 (stereo not given) | 0.941 (inactive) | 1.04 | 1.18 (inactive) | 0.739 | 0.805 (inactive) | 0.839 | 0.9 (inactive) | 1.4 | 1.8 | 0.918 | 0.743 (inactive) |
| C/C(=N\NC(=O)c1ccc(C(C)(C)C)cc1)c1ccccn1 | 1.12 (inactive) | 0.974 | 1.03 (inactive) | 0.884 | 0.896 (inactive) | 0.847 | 0.835 (inactive) | 0.982 | 1.13 (inactive) | 0.969 | 0.804 (inactive) |
| CCCCC(=O)NNC(=S)NC(=O)c1ccc(C)cc1 | 1.56 (inactive) | 1.34 | 1.27 (inactive) | 0.974 | 1.1 (inactive) | 0.942 | 1.17 (inactive) | 2.03 | 3.37 | 1.24 | 1.22 (inactive) |
| Cc1ccc(S(=O)(=O)c2ccc([N+](=O)[O-])cn2)cc1 | 0.941 (inactive) | 0.938 | 0.929 (inactive) | 0.813 | 1.11 (inactive) | 0.861 | 1.05 (inactive) | 1.67 | 2.26 | 0.948 | 1.29 (inactive) |
| O=C(OCn1ncc(Br)c(Br)c1=O)c1ccc(F)cc1 | 0.853 (inactive) | 1.06 | 1.03 (inactive) | 0.766 | 1.02 (inactive) | 0.803 | 1.06 (inactive) | 1.67 | 2.44 | 0.918 | 1.03 (inactive) |
